# In patent US11578087B2, “Oxaborole esters and uses thereof” (priority 2016, dated 2023):
# pIC50: −log10 of the molar value.
# Tested on: T. cruzi amastigote (Td Tomato-modified) in Vero cells
# Assay: In vitro IC50 measurement of T. cruzi amastigote killing using Td Tomato-modified T. cruzi
# Assay type: cell-based
# Conditions: Trypanosoma cruzi, 72 h, fluorescence, read-out: IC50: I Org. amastigote Growth T. cruzi 3 d
# Experimental: Example 254. In Vitro IC50 Measurement of T. cruzi Amastigote Killing Using Td Tomato-Modified T. cruzi
# The T. cruzi parasites used in this assay were genetically modified to express Td Tomato fluorescent protein. Vero cells (African green monkey kidney epithelial cells) were harvested from continuous cultures using trypsin and added to the inner 60 wells of 96-well Greiner Bio One plates (plate catalog #655090) at 200 ul/well of […]. Cells were allowed to adhere for 1 h before infection with T. cruzi. T. cruzi for infection were harvested from previously-infected Vero cells, washed, pelleted and resuspended at 5×10^6/mL. 50 uL of parasites were added to each well containing Vero cells. Compounds were prepared from 5 mM stock concentrations in DMSO to final concentrations in wells ranging from 5 uM to 5 nM. Wells were provided for negative controls, lacking compounds. Plates were placed into a 37° C. incubator for 20 min, then a “Day 0” reading was taken on a Synergy H4 plate reader to record initial fluorescence levels, at 544 (excitation) and 612 nm (emission). 96-well plates were placed in Tupperware containers with wet paper towels and incubated at 37° C. incubator for 72 h. After 72 h plates were reread (Day 3 reading) and data analyzed using Excel and/or Graphpad software. Day 0 fluorescence was subtracted from Day 3 to remove input parasite fluorescence. Growth curves are generated and 50% and 90% inhibitory concentrations are determined by nonlinear regression analysis.
row,Structure (SMILES),pIC50
1,"Cc1c(C(=O)N[C@H](C(=O)OCCN2CC3CC(C2)O3)C(C)C)ccc2c1B(O)OC2 [Example 6-231, 2-(6-oxa-3-azabicyclo[3.1.1]heptan-3-yl)ethyl (1-hydroxy-7-methyl-1,3-dihydrobenzo[c][1,2]oxaborole-6-carbonyl)-L-valinate]",6.00 to 7.68
2,"COc1c(C(=O)N[C@H](C(=O)OCc2ccccc2)C(C)C)ccc2c1B(O)OC2 [Example 6-194, Benzyl (1-hydroxy-7-methoxy-1,3-dihydrobenzo[c][1,2]oxaborole-6-carbonyl)-L-valinate]",6.00 to 7.68
3,"COCC1(COC(=O)[C@@H](NC(=O)c2ccc3c(c2C)B(O)OC3)C(C)C)COC1 [Example 6-158, (3-(Methoxymethyl)oxetan-3-yl)methyl (1-hydroxy-7-methyl-1,3-dihydrobenzo[c][1,2]oxaborole-6-carbonyl)-L-valinate]",6.00 to 7.68
4,"Cc1c(C(=O)N[C@H](C(=O)OCC2(O)CCOC2)C(C)C)ccc2c1B(O)OC2 (stereo partly drawn) [Example 6-250, (3-hydroxytetrahydrofuran-3-yl)methyl (1-hydroxy-7-methyl-1,3-dihydrobenzo[c][1,2]oxaborole-6-carbonyl)-L-valinate]",≤ 6.00
5,"Cc1c(C(=O)N[C@H](C(=O)OCCN2CCC3(CC2)COC3)C(C)C)ccc2c1B(O)OC2 [Example 6-217, 2-(2-oxa-7-azaspiro[3.5]nonan-7-yl)ethyl (1-hydroxy-7-methyl-1,3-dihydrobenzo[c][1,2]oxaborole-6-carbonyl)-L-valinate]",≤ 6.00
6,"Cc1c(C(=O)N[C@H](C(=O)OCc2ccccn2)C(C)(C)O)ccc2c1B(O)OC2 [Example 6-230, Pyridin-2-ylmethyl (S)-3-hydroxy-2-(1-hydroxy-7-methyl-1,3-dihydrobenzo[c][1,2]oxaborole-6-carboxamido)-3-methylbutanoate]",6.00 to 7.68
7,"Cc1c(C(=O)N[C@H](C(=O)OCc2ccc(C(=O)N3CCN(C)CC3)cc2)C(C)C)ccc2c1B(O)OC2 [Example 6-105, 4-(4-Methylpiperazine-1-carbonyl)benzyl (1-hydroxy-7-methyl-1,3-dihydrobenzo[c][1,2]oxaborole-6-carbonyl)-L-valinate]",6.00 to 7.68
8,"Cc1c(C(=O)N[C@H](C(=O)OCc2cncc(N(C)C)n2)C(C)C)ccc2c1B(O)OC2 [Example 6-232, (6-(dimethylamino)pyrazin-2-yl)methyl (1-hydroxy-7-methyl-1,3-dihydrobenzo[c][1,2]oxaborole-6-carbonyl)-L-valinate]",≥ 7.70
9,"COc1c(C(=O)N[C@H](C(=O)OCc2ccc(F)cc2)C(C)C)ccc2c1B(O)OC2 [Example 6-195, 4-fluorobenzyl (1-hydroxy-7-methoxy-1,3-dihydrobenzo[c][1,2]oxaborole-6-carbonyl)-L-valinate]",6.00 to 7.68
10,"Cc1c(C(=O)N[C@H](C(=O)OC[C@H]2CCOC2)C(C)C)ccc2c1B(O)OC2 [Example 6-235, ((S)-tetrahydrofuran-3-yl)methyl (1-hydroxy-7-methyl-1,3-dihydrobenzo[c][1,2]oxaborole-6-carbonyl)-L-valinate]",≥ 7.70
11,"Cc1c(C(=O)N[C@H](C(=O)OCc2ccc(S(N)(=O)=O)cc2)C(C)C)ccc2c1B(O)OC2 [Example 6-108, 4-Sulfamoylbenzyl (1-hydroxy-7-methyl-1,3-dihydrobenzo[c][1,2]oxaborole-6-carbonyl)-L-valinate]",≤ 6.00
12,"CC(C)[C@H](NC(=O)c1ccc2c(c1C(F)F)B(O)OC2)C(=O)OCc1ccccc1 [Example 6-079, Benzyl (7-(difluoromethyl)-1-hydroxy-1,3-dihydrobenzo[c][1,2]oxaborole-6-carbonyl)-L-valinate]",6.00 to 7.68

# Tested on: IL3000 T. congolense (drug sensitive) strain
# Assay: In vitro Alamar Blue 72 h drug sensitivity assay for T. congolense
# Assay type: cell-based, Trypanosoma congolense
# Conditions: Trypanosoma congolense, 72 h, bloodstream form, 69 h + 3 h Resazurin, 34° C., read-out: IC50: I Org. Growth T. congolense 3 d
# Experimental: Example 252. In Vitro Alamar Blue 72 h Drug Sensitivity Assay for T. congolense
# Compounds were tested in vitro for chemotherapeutic potency against the IL3000 T. congolense (drug sensitive) strain, using the Alamar Blue assay with several modifications. Test compounds were prepared as 10 mg/mL DMSO stocks for each assay run. Compounds were assayed in at least three separate, independent test runs and an 11-point dilution curve was used to determine the IC50 values. Bloodstream form trypanosomes were supported in HMI media containing 20% bovine serum and were incubated with test compounds for 69 h at 34° C. in a humidified atmosphere containing 5% CO2. Thereafter, 10 μL of Resazurin dye (12.5 mg in 100 mL of phosphate buffered saline, Sigma-Aldrich, Buchs, Switzerland) were added for an additional 3 h. Plates were then read using a fluorescent plate reader (Spectramax, Gemini XS, Bucher Biotec, Basel, Switzerland) using an excitation wavelength of 536 nm and an emission wavelength of 588 nm. Data points were averaged to generate sigmoidal dose-response curves and IC50 values were determined using Softmax Pro 5.2 software.
row,Structure (SMILES),pIC50
1,"Cc1cccc(C)c1OC(=O)[C@H](C)NC(=O)c1ccc2c(c1)B(O)OC2 [Example 6-001, 2,6-Dimethylphenyl (1-hydroxy-1,3-dihydrobenzo[c][1,2]oxaborole-6-carbonyl)-L-alaninate]",5.30 to 8.00
2,"CC(C)(NC(=O)c1ccc2c(c1)B(O)OC2)C(=O)OCc1ccccc1 [Example 6-013, Benzyl 2-(1-hydroxy-1,3-dihydrobenzo[c][1,2]oxaborole-6-carboxamido)-2-methylpropanoate]",5.30 to 8.00
3,"NC(=O)CC[C@H](NC(=O)c1ccc2c(c1)B(O)OC2)C(=O)OCc1ccccc1 [Example 6-011, Benzyl (1-hydroxy-1,3-dihydrobenzo[c][1,2]oxaborole-6-carbonyl)-L-glutaminate]",5.30 to 8.00
4,"Cc1cccc(C)c1COC(=O)[C@H](C)NC(=O)c1ccc2c(c1)B(O)OC2 [Example 6-014, 2,6-Dimethylbenzyl (1-hydroxy-1,3-dihydrobenzo[c][1,2]oxaborole-6-carbonyl)-L-alaninate]",5.30 to 8.00
5,"COC(=O)[C@H](CC1CC1)NC(=O)c1ccc2c(c1)B(O)OC2 [Example 6-184, Methyl (S)-3-cyclopropyl-2-(1-hydroxy-1,3-dihydrobenzo[c][1,2]oxaborole-6-carboxamido)propanoate]",5.30 to 8.00
6,"Cc1c(C(=O)N[C@H](C(=O)OCc2ccc(OCCN3CCCC3)cc2)C(C)C)ccc2c1B(O)OC2 [Example 6-163, 4-(2-(Pyrrolidin-1-yl)ethoxy)benzyl (1-hydroxy-7-methyl-1,3-dihydrobenzo[c][1,2]oxaborole-6-carbonyl)-L-valinate]",> 9.30
7,"O=C(OCc1ccccc1)[C@@H]1CCCN1C(=O)c1ccc2c(c1)B(O)OC2 [Example 6-012, Benzyl (1-hydroxy-1,3-dihydrobenzo[c][1,2]oxaborole-6-carbonyl)-L-prolinate]",5.30 to 8.00
8,"C[C@H](NC(=O)c1ccc2c(c1)B(O)OC2)C(=O)OC(C)(C)c1ccccc1 [Example 6-015, 2-Phenylpropan-2-yl (1-hydroxy-1,3-dihydrobenzo[c][1,2]oxaborole-6-carbonyl)-L-alaninate]",5.30 to 8.00
9,"Cc1c(C(=O)N[C@H](C(=O)OC2COCCOC2)C(C)C)ccc2c1B(O)OC2 [Example 6-162, 1,4-dioxepan-6-yl (1-hydroxy-7-methyl-1,3-dihydrobenzo[c][1,2]oxaborole-6-carbonyl)-L-valinate]",8.00 to 9.29
10,"COC(=O)[C@H](Cc1c[nH]c2ccccc12)NC(=O)c1ccc2c(c1)B(O)OC2 [Example 6-183, Methyl (1-hydroxy-1,3-dihydrobenzo[c][1,2]oxaborole-6-carbonyl)-L-tryptophanate]",5.30 to 8.00
11,"CC(C)[C@H](NC(=O)c1ccc2c(c1F)B(O)OC2)C(=O)OCc1ccc(F)cc1F [Example 6-037, 2,4-Difluorobenzyl (7-fluoro-1-hydroxy-1,3-dihydrobenzo[c][1,2]oxaborole-6-carbonyl)-L-valinate]",5.30 to 8.00
12,"COC(=O)[C@@H](NC(=O)c1ccc2c(c1)B(O)OC2)C(C)C [Example 6-179, Methyl (1-hydroxy-1,3-dihydrobenzo[c][1,2]oxaborole-6-carbonyl)-L-valinate]",5.30 to 8.00
13,"O=C(CNC(=O)c1ccc2c(c1)B(O)OC2)OCc1ccccc1 [Example 6-004, Benzyl (1-hydroxy-1,3-dihydrobenzo[c][1,2]oxaborole-6-carbonyl)glycinate]",5.30 to 8.00
14,"CC(C)[C@H](NC(=O)c1ccc2c(c1)B(O)OC2(C)C)C(=O)OCc1ccc(F)cc1F [Example 6-034, 2,4-Difluorobenzyl (1-hydroxy-3,3-dimethyl-1,3-dihydrobenzo[c][1,2]oxaborole-6-carbonyl)-L-valinate]",5.30 to 8.00
15,"COC(=O)[C@H](CCCc1ccccc1)NC(=O)c1ccc2c(c1)B(O)OC2 [Example 6-028, Methyl (S)-2-(1-hydroxy-1,3-dihydrobenzo[c][1,2]oxaborole-6-carboxamido)-5-phenylpentanoate]",5.30 to 8.00
16,"C[C@@H](NC(=O)c1ccc2c(c1)B(O)OC2)C(=O)OCc1ccccc1 [Example 6-175, Benzyl (1-hydroxy-1,3-dihydrobenzo[c][1,2]oxaborole-6-carbonyl)-D-alaninate]",5.30 to 8.00
17,"COC(=O)[C@@H](CCCc1ccccc1)NC(=O)c1ccc2c(c1)B(O)OC2 [Example 6-029, Methyl (R)-2-(1-hydroxy-1,3-dihydrobenzo[c][1,2]oxaborole-6-carboxamido)-5-phenylpentanoate]",5.30 to 8.00

# Same assay, conditions: bloodstream form, 69 h + 3 h Resazurin, 34° C., read-out: IC50: I Org. Growth T. congolense 3 d
row,Structure (SMILES),pIC50
1,"COC(=O)[C@H](Cc1ccccc1)NC(=O)c1ccc2c(c1)B(O)OC2 [Example 6-181, Methyl (1-hydroxy-1,3-dihydrobenzo[c][1,2]oxaborole-6-carbonyl)-L-phenylalaninate]",5.30 to 8.00
